Test results published in ChEMBL document CHEMBL1144234, “Novel design principle validated: glucopyranosylidene-spiro-oxathiazole as new nanomolar inhibitor of glycogen phosphorylase, potential antidiabetic agent” (Bioorg Med Chem Lett, 2008).

These molecules were tested against T1, Glycogen phosphorylase, muscle form (Oryctolagus cuniculus, UniProt P00489).
T1 sequence (P00489 whole entry): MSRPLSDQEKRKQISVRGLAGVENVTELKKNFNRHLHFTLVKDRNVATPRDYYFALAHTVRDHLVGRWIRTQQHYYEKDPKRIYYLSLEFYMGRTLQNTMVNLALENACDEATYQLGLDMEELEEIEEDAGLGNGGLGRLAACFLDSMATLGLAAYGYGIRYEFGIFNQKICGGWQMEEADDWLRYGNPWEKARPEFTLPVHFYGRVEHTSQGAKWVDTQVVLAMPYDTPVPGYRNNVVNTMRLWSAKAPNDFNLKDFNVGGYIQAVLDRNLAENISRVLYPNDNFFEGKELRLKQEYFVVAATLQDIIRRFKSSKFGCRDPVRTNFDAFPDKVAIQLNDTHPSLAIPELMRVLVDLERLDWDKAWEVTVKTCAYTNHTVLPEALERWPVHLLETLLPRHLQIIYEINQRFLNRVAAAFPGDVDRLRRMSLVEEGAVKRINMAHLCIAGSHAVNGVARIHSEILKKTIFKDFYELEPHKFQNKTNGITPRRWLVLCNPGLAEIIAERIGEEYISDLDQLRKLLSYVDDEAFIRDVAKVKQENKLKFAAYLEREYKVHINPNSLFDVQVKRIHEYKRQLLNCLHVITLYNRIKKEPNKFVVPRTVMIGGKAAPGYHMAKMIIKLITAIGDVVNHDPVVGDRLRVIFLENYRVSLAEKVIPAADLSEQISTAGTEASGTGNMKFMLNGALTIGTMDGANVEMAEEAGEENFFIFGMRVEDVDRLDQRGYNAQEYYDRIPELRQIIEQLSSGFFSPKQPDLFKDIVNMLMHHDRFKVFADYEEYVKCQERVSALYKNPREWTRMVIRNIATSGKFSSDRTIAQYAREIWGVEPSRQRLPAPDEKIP
Description: Inhibition of rabbit muscle glycogen phosphorylase b

Ki | Structure (SMILES)
305 µM | CC(=O)NC(=O)N[C@@H]1O[C@H](CO)[C@@H](O)[C@H](O)[C@H]1O
444 µM | O=C(N[C@@H]1O[C@H](CO)[C@@H](O)[C@H](O)[C@H]1O)c1cccc2ccccc12
28 µM | OC[C@H]1O[C@]2(ON=C(c3ccc(F)cc3)S2)[C@H](O)[C@@H](O)[C@@H]1O
5 µM | O=C(NC(=O)c1cccc2ccccc12)N[C@@H]1O[C@H](CO)[C@@H](O)[C@H](O)[C@H]1O

Continued, molecule first:

Structure (SMILES) | Ki
O=C(NC(=O)c1ccc2ccccc2c1)N[C@@H]1O[C@H](CO)[C@@H](O)[C@H](O)[C@H]1O | 0.35 µM
OC[C@H]1O[C@]2(ON=C(c3ccccc3)S2)[C@H](O)[C@@H](O)[C@@H]1O | 26 µM
COc1ccc(C2=NO[C@]3(O[C@H](CO)[C@@H](O)[C@H](O)[C@H]3O)S2)cc1 | 8 µM
O=C(NC1O[C@H](CO)[C@@H](O)[C@H](O)[C@H]1O)c1ccccc1 (single isomer, unassigned) | 81 µM
CC(=O)NC1O[C@H](CO)[C@@H](O)[C@H](O)[C@H]1O (single isomer, unassigned) | 32 µM
